Measured values published in patent US12084437B2, “Halo-substituted piperidines as orexin receptor modulators” (AstraZeneca AB, priority 2016, dated 2024).

Assays:
[1] = molecular target: T1, OX2 (Homo sapiens, UniProt O43614); experiment: Orexin receptor cell-based functional assay, [Ca2+]i by FLIPR, CHO-OX2 cells; settings: FLIPR calcium, antagonism of EC90 of [OX]
T1 construct: expressed in transfected cells; host or cells: CHO (CHO-OX2)
T1 sequence (O43614 1-444): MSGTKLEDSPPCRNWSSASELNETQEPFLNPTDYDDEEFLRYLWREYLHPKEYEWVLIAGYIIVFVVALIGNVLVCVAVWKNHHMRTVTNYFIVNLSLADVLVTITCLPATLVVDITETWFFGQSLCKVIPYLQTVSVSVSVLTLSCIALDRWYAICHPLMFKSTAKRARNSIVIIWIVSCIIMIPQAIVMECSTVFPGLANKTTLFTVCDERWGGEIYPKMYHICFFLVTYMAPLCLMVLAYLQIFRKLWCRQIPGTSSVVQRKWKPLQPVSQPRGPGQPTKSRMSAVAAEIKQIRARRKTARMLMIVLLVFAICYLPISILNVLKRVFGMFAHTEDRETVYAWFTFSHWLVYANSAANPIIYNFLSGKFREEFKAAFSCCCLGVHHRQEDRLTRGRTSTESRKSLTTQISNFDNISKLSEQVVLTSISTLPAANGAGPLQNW
How it was run: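 CHO cells expressing human OX1 or OX2 (20,000/well, grown overnight) were loaded with Calcium6 dye plus 2.5 mM probenecid for 2 h at 37 °C, then preincubated 30 min with compound (0.1 nM–10 µM). FLIPR fluorescence (ex 488/em 540 nm) was tracked before and after an EC90 orexin challenge.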

[2] = molecular target: T2, OX1 (Homo sapiens, UniProt O43613); experiment: Orexin receptor cell-based functional assay, [Ca2+]i by FLIPR, CHO-OX1 cells; settings: FLIPR calcium, antagonism of EC90 of [OX], read-out: OXI, IC50
T2 construct: expressed in transfected cells; host or cells: CHO (CHO-OX1)
T2 sequence (O43613 1-425): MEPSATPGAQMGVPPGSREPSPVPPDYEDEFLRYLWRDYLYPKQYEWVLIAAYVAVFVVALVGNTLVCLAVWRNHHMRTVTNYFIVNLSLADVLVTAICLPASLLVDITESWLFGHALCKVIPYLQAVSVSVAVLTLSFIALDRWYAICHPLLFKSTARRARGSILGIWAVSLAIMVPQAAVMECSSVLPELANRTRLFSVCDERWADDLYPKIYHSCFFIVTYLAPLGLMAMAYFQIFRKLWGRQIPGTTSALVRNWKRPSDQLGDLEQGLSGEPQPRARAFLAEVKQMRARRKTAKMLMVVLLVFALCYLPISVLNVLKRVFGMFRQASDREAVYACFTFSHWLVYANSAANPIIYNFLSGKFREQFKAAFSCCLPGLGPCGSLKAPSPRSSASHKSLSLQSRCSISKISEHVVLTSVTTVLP

| Compound | IC50 [1] [µM] | IC50 [2] [nM] |
| --- | --- | --- |
| Cc1ccc(-c2nnn(C)n2)c(C(=O)N2CC(F)(F)C[C@@H](C)[C@H]2CNc2ncc(C(F)(F)F)cn2)n1 [Compound 240, ((2S,3R)-5,5-difluoro-3-methyl-2-(((5-(trifluoromethyl)pyrimidin-2-yl)amino)methyl)piperidin-1-yl)(6-methyl-3-(2-methyl-2H-tetrazol-5-yl)pyridin-2-yl)methanone] | > 5 | 29 |
| C[C@@H]1CC(F)(F)CN(C(=O)c2nn(C)cc2-c2ccncn2)[C@@H]1CNc1ncc(C(F)(F)F)cn1 [Compound 241, ((2S,3R)-5,5-difluoro-3-methyl-2-(((5-(trifluoromethyl)pyrimidin-2-yl)amino)methyl)piperidin-1-yl)(1-methyl-4-(pyrimidin-4-yl)-1H-pyrazol-3-yl)methanone] | > 5 | > 1000 |
| C[C@@H]1CC(F)(F)CN(C(=O)c2nn(C)cc2-c2ncc(F)cn2)[C@@H]1CNc1ncc(C(F)(F)F)cc1F [Compound 242, ((2S,3R)-5,5-difluoro-2-(((3-fluoro-5-(trifluoromethyl)pyridin-2-yl)amino)methyl)-3-methylpiperidin-1-yl)(4-(5-fluoropyrimidin-2-yl)-1-methyl-1H-pyrazol-3-yl)methanone] | > 5 | 5 |
| C[C@@H]1CC(F)(F)CN(C(=O)c2nn(C)cc2-c2ncc(F)cn2)[C@@H]1COc1ncc(C(F)(F)F)cn1 [Compound 246] | > 5 | 4820 |
| C[C@@H]1CC(F)(F)CN(C(=O)c2nn(C)cc2-c2ncccn2)[C@@H]1COc1ncc(C(F)(F)F)cc1F [Compound 247] | > 5 | 437 |
| C[C@@H]1CC(F)(F)CN(C(=O)c2nn(C)cc2-c2ncc(F)cn2)[C@@H]1COc1ccc(C(F)(F)F)cn1 [Compound 248] | > 5 | 50 |

Continued, values first:

| IC50 [1] [µM] | IC50 [2] [nM] | Compound |
| --- | --- | --- |
| > 5 | 8 | C[C@@H]1CC(F)(F)CN(C(=O)c2nn(C)nc2-c2ccc(Cl)cn2)[C@@H]1CNc1ncc(C(F)(F)F)cn1 [Compound 249] |
| > 5 | 8 | C[C@@H]1CC(F)(F)CN(C(=O)c2cc(F)ccc2-c2nnn(C)n2)[C@@H]1CNc1ncc(C(F)(F)F)cn1 [Compound 252, ((2S,3R)-5,5-difluoro-3-methyl-2-(((5-(trifluoromethyl)pyrimidin-2-yl)amino)methyl)piperidin-1-yl)(5-fluoro-2-(2-methyl-2H-tetrazol-5-yl)phenyl)methanone] |
| > 5 | 70 | C[C@@H]1CC(F)(F)CN(C(=O)c2cn(C)nc2-c2ccccc2)[C@@H]1CNc1ncc(Cl)cn1 [Compound 254] |
| > 5 | 57 | C[C@@H]1CC(F)(F)CN(C(=O)c2nn(C)cc2-c2ncc(F)cn2)[C@@H]1CN(C)c1ncc(C(F)(F)F)cn1 [Compound 263] |
| > 5 | 3 | Cc1c(-c2ncc(F)cn2)c(C(=O)N2CC(F)(F)C[C@@H](C)[C@H]2CNc2ncc(C(F)(F)F)cn2)nn1C [Compound 264, ((2S,3R)-5,5-difluoro-3-methyl-2-(((5-(trifluoromethyl)pyrimidin-2-yl)amino)methyl)piperidin-1-yl)(4-(5-fluoropyrimidin-2-yl)-1,5-dimethyl-1H-pyrazol-3-yl)methanone] |
